According to patent publication US10869931B2, “Polyethylene glycol-modified angiogenesis inhibitor HM-1 and application thereof” (NANJING ANJI BIOLOGICAL TECHNOLOGY CO.,LTD, priority 2016, dated 2020):
Marks after values point to notes of the source that are not given here. Where no end group is shown, it is not given here.

Legend:
[1] = test system: neovascularization in rat model of premature retinopathy; test: Fluctuating-oxygen rat model of premature retinopathy (endothelial nuclei count); assay type: in vivo; settings: vascular endothelial nuclei per slice, day 14
Procedure: A fluctuating oxygen-induced animal model was used to randomly divide the newborn rats that were naturally delivered on the same day (within 12 hours) into three groups: the oxygenated model group, the oxygenated treatment group, and the normal control group. The oxygenated model group was subdivided into three subgroup models and along with the oxygenated treatment group was placed in a semi-closed oxygen chamber made of plexiglass. The chamber was connected to medical oxygen, and the oxygen analyzer was adjusted to a concentration of 80%±2%. After 24 hours, Nitrogen gas was introduced into the oxygen chamber, and the oxygen concentration was adjusted to 10%±2% and maintained for 24 h. This process was repeated, so that the oxygen concentration in the oxygen chamber is switched between 80% and 10% every 24 hours, and then transferred to the air for 7 days. The oxygen concentration was monitored 8 times a day, and the ambient temperature in the control cabin was 23° C.±2° C. Bedding change, adding food, changing water and replacing mother rats were performed once a day. The normal control group was placed in an animal facility environment. […] The oxygenated therapeutic components were divided into four subgroups, and on the 7th day of modeling, mPEG-SC-HM-1, mPEG2-NHS-HM-1, mPEG-ALD10k-HM-1, and mPEG-bALD-HM-1 were respectively administered by intravitreal injection. Only normal saline was administered to the oxygen model group and the control group. The administrations continued for 1 week. […] After immersion in wax, serial section at thickness of 4 μm was performed, wherein the sections were kept away from the optic disc. The sections are parallel to the sagittal plane of the cornea to the optic disc. Ten sections per eyeball were randomly selected from each eyeball to be stained with hematoxylin and eosin, and the number of vascular endothelial cells that broke through the retinal inner membrane was counted (only the vascular endothelial nucleus closely related to the inner retinal membrane was counted), and the average numbers of endothelial cells per eyeball per slice was counted.

[2] = test system: Thyroid cancer tumor cells; test: MTT proliferation inhibition, thyroid cancer cells; assay type: cell-based, human; parameters: concentration or dose not given beside the values; settings: 48 h
Outline: (§1)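 Tumour cells plated at 2×10^4 cells/mL, attached overnight, then exposed to dilutions of mPEG-HM-1 for 48 h at 37 °C, 5% CO2. MTT added 4 h, formazan dissolved in DMSO, absorbance 570/630 nm; growth inhibition = 1 − treated/untreated, three independent repeats, mean±SD.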

[3] = test system: Uterine cancer tumor cells; test: MTT proliferation inhibition, uterine cancer cells; assay type: cell-based, human; parameters: concentration or dose not given beside the values; settings: 48 h
Outline: as §1

sarcoma tumor cells = test: MTT proliferation inhibition, sarcoma cells; assay type: cell-based, human; parameters: concentration or dose not given beside the values; settings: 48 h
Outline: as §1

[4] = test system: Colorectal cancer tumor cells; test: MTT proliferation inhibition, colorectal cancer cells; assay type: cell-based, human; parameters: concentration or dose not given beside the values; settings: 48 h
Outline: as §1

[5] = test system: retinal neovascular clusters in OIR C57/B16 mice; test: Retinal blood vessels in OIR mice; assay type: in vivo, mouse; settings: for Neovascular clusters area: retina evaluated on day 17; for Inhibition rate: neovascular clusters area vs control, day 17
Source text: Establishment of the OIR model: Exposure of young mouse and their mothers to 75% hyperoxic environment from day 7 to day 12 after birth of C57/B16 mice caused rapid disappearance of capillaries in the central retina. Upon returning to the indoor air on the 12th day, the retinal blood vessels, upon exposing to hyperoxia, rapidly disappeared, causing extensive abnormal neovascularization, and the central portion of the retina remained largely avascular for a long time. After the blood vessels disappeared completely, on the 13th day, physiological saline (negative control group), mPEG-SC-HM-1, mPEG2-NHS-HM-1, mPEG-ALD10k-HM-1, and mPEG-bALD-HM-1, were administered by intravitreal injection and retinal vessels were evaluated on day 17 (to label unclosed vessels, […] of Texas Red-labeled tomato lectin was injected into the left ventricle and circulated for 5 min).

Hemangioma tumor cells = test: MTT proliferation inhibition, hemangioma cells; assay type: cell-based, human; parameters: concentration or dose not given beside the values; settings: 48 h
Outline: as §1

various tumor cells = test: MTT proliferation inhibition, overall statements on various tumor cells; assay type: cell-based, human; settings: compared with the negative control
Procedure: The activity of mPEG-HM-1 to inhibit the growth of various tumor cells was examined by MTT assay. The tumor cells were cultured to a concentration of 90% or more in a 37° C., 5% CO2 incubator and collected by trypsinization. The cells were resuspended in the culture medium and counted under a microscope to adjust the cell concentration to 2×10^4 cells/mL, the cell suspension was inoculated into a 96-well plate at 100 μL/well and incubated overnight at 37° C. in a 5% CO2 incubator. mPEG-HM-1 was diluted with the culture solution to each predetermined concentration. Docetaxel is diluted to the final concentration with the culture medium. After the cells were fully attached, each dilution was added to a 96-well plate (100 μL/well). The mPEG-HM-1 dilution was added as a drug-administered group, and docetaxel was added as a positive control group, and a culture solution without any drug was used as a negative control group. Incubate for 48 h at 37° C. in a 5% CO2 incubator. 5 mg/mL of MTT was added to a 96-well plate at 20 μL per well, and incubation was continued for 4 hours. The medium was aspirated, dissolved in 150 μL of DMSO per well, and gently mixed by shaking for 10 min. The absorbance was measured at a measurement wavelength of 570 nm and a reference wavelength of 630 nm using a microplate reader, and the rate of growth inhibition (proliferation inhibition, PI) was calculated. The formula is as follows: PI (%)=1−administration group/negative group
The test was repeated 3 times independently, and the results obtained by the test were expressed as mean±SD, and the test results are shown in Table 15 to Table 18.

[6] = test system: collagen induced arthritis (CIA) in DBA/1 mice; test: Collagen-induced mouse arthritis (CIA) model; assay type: in vivo; settings: for Joint swelling / Left and right paw swelling / Clinical score: CIA DBA/1 mice; for Clinical score: maximum score 16; for limbs score (in words): CIA mice, subcutaneous, once every three days, vs model control group
Liver cancer tumor cells = test: MTT proliferation inhibition, liver cancer cells; assay type: cell-based, human; parameters: concentration or dose not given beside the values; settings: 48 h
Outline: as §1

[7] = test system: Pancreatic cancer tumor cells; test: MTT proliferation inhibition, pancreatic cancer cells; assay type: cell-based, human; parameters: concentration or dose not given beside the values; settings: 48 h
Outline: as §1

[8] = 20 mg/kg subcutaneous from day 30 of modeling
[9] = 100 μg intravitreal for 1 week from day 7
[10] = 100 μg intravitreal injection on day 13
[11] = 40 mg/kg subcutaneous from day 30 of modeling

Substance | rate of growth inhibition [2] [%] | rate of growth inhibition [3] [%] | rate of growth inhibition (sarcoma tumor cells) [%] | rate of growth inhibition [4] [%] | rate of growth inhibition (Hemangioma tumor cells) [%] | inhibition of proliferation of various tumor cells (in words) (various tumor cells) | limbs score (in words) [6] | rate of growth inhibition (Liver cancer tumor cells) [%] | rate of growth inhibition [7] [%] | Cell nuclei count [1, 9] | Neovascular clusters area [5, 10] [mm^2] | Inhibition rate ([5]; 100 μg intravitreal) [%**] | Joint swelling [6, 11] [mm] | Left and right paw swelling [6, 11] [mm] | Clinical score [6, 11] | also measured
mPEG-ALD10k-Arg-Gly-Ala-Asp-Arg-Ala-Gly-Gly-Gly-Gly-Arg-Gly-Asp ({mPEG‑ALD 10 kDa}-RGADRAGGGGRGD) [mPEG-ALD10k-HM-1] | 55.30 ± 13.10 | 90.79 ± 22.19 | 53.01 ± 11.42 | 80.22 ± 20.03 | 60.25 ± 14.33 | had the best effect | significantly lower than that of the model control group | 70.55 ± 20.09 | 79.21 ± 19.14 |  |  |  |  |  |  | Cell nuclei count ([1]; 50 μg intravitreal for 1 week from day 7): 7.581 ± 1.903; Neovascular clusters area ([5]; 50 μg intravitreal injection on day 13): 0.085 ± 0.007 mm^2; Inhibition rate ([5]; 50 μg intravitreal): 61.75%**; inhibition rate of retinal neovascular clusters ([5]; OIR mice, 50 μg intravitreal injection, evaluated day 17): 61.75%; Joint swelling [6, 8]: 0.73 ± 0.15 mm; Left and right paw swelling [6, 8]: 0.70 ± 0.14 mm; Clinical score [6, 8]: 8.65 ± 1.33
mPEG2-NHS20k-Arg-Gly-Ala-Asp-Arg-Ala-Gly-Gly-Gly-Gly-Arg-Gly-Asp ({mPEG2‑NHS 20 kDa}-RGADRAGGGGRGD) [mPEG2-NHS20k-HM-1] | 43.68 ± 13.61 | 65.99 ± 22.07 | 48.91 ± 10.57 | 58.16 ± 20.36 | 55.38 ± 16.23 | had the best effect | significantly lower than that of the model control group | 55.03 ± 14.19 | 52.13 ± 13.32 | 7.683 ± 2.914 | 0.112 ± 0.011 | 49.27 | 0.72 ± 0.16 | 0.75 ± 0.12 | 8.67 ± 1.35 | 
mPEG-SC20k-Arg-Gly-Ala-Asp-Arg-Ala-Gly-Gly-Gly-Gly-Arg-Gly-Asp ({mPEG‑SC 20 kDa}-RGADRAGGGGRGD) [mPEG-SC20k-HM-1] | 50.78 ± 13.46 | 76.93 ± 23.14 | 48.93 ± 10.53 | 66.19 ± 20.58 | 55.63 ± 18.30 | had the best effect | significantly lower than that of the model control group | 61.09 ± 14.09 | 62.63 ± 18.13 | 7.372 ± 2.078 | 0.110 ± 0.010 | 50.23 | 0.76 ± 0.12 | 0.72 ± 0.15 | 9.00 ± 1.25 | 
